This passage reports IC50 results from BindingDB's records for doi:10.1128/AAC.00386-06 (University of Connecticut At Storrs, 2006).

Molecules are shown by their SMILES.

The experiment deals with T1, Dihydrofolate reductase (Bacillus cereus (strain ATCC 14579 / DSM 31 / CCUG 7414 / JCM 2152 / NBRC 15305 / NCIMB 9373 / NCTC 2599 / NRRL B-3711), UniProt Q81E04).
T1 sequence (Q81E04 whole entry): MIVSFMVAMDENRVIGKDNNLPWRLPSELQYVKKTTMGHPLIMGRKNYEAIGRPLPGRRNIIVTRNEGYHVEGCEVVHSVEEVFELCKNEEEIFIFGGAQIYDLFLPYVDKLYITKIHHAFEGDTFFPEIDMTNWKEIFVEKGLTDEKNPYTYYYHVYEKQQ
Kind of experiment: In Vitro Inhibition Assay. Conditions: pH 7; 25 °C. How it is done: Enzyme activity assays were performed by monitoring the rate of enzyme-dependent NADPH consumption at an absorbance of 340 nm over a period of several minutes. After an incubation period of 5 min in the presence or absence of the inhibitor, the reaction was initiated with the addition of dihydrofolate. The reactions were performed a minimum of four times to determine the average rate and 50% inhibitory concentration values.
`COc1ccc(CCCCCC(=O)O)cc1Cc1cnc(N)nc1N` came in with an IC50 of 150 µM.
In the case of `COc1ccc(C#CCCCCC(=O)O)cc1Cc1cnc2nc(N)nc(N)c2c1C` [2,4-diamino-5-deazapteridine, 2] it was 0.27 µM.
The compound `COc1ccc(I)cc1Cc1cnc(N)nc1N` [5-[(5-iodo-2-methoxyphenyl)methyl]pyrimidine-2,4-diamine] returned a half-inhibitory concentration (IC50) of 37.3 µM.
As to `CCOC(=O)CCCCOc1ccc(OC)c(Cc2cnc3nc(N)nc(N)c3c2C)c1` [ethyl 5-[3-({2,4-diamino-5-methylpyrido[2,3-d]pyrimidin-6-yl}methyl)-4-methoxyphenoxy]pentanoate], the IC50 is 0.35 µM.
As to `COc1cc(NCc2ccc3nc(N)nc(N)c3c2)c(Br)c(OC)c1OC` [6-{[(2-bromo-3,4,5-trimethoxyphenyl)amino]methyl}quinazoline-2,4-diamine], the IC50 worked out at 1.1 µM.
In turn, `COc1cc(CCc2c[nH]c3nc(N)nc(N)c23)cc(OC)c1OC` [5-[2-(3,4,5-trimethoxyphenyl)ethyl]-7H-pyrrolo[2,3-d]pyrimidine-2,4-diamine] yielded an IC50 of 252 µM.
To `Nc1nc(N)c2nc(CNc3ccc4cc(Cl)ccc4c3)cnc2n1` [6-{[(6-chloronaphthalen-2-yl)amino]methyl}pteridine-2,4-diamine] belongs 6.32 µM.
The compound `Nc1nc(N)c2nc(CNc3ccc4cc(Cl)c(Cl)cc4c3)cnc2n1` [6-{[(6,7-dichloronaphthalen-2-yl)amino]methyl}pteridine-2,4-diamine] came in with an IC50 of 4.82 µM.
To `Nc1nc(N)c2nc(CN3c4ccccc4C=Cc4ccccc43)cnc2n1` [6-{2-azatricyclo[9.4.0.0^{3,8}]pentadeca-1(11),3(8),4,6,9,12,14-heptaen-2-ylmethyl}pteridine-2,4-diamine] belongs 16.7 µM.
To `CN(Cc1cnc2nc(N)nc(N)c2n1)c1ccc2cc(Cl)ccc2c1` [6-{[(6-chloronaphthalen-2-yl)(methyl)amino]methyl}pteridine-2,4-diamine] belongs 2.26 µM; to `COc1ccc(OCCCC(=O)O)cc1Cc1cnc2nc(N)nc(N)c2c1C` [4-[3-({2,4-diamino-5-methylpyrido[2,3-d]pyrimidin-6-yl}methyl)-4-methoxyphenoxy]butanoic acid], 0.6 µM.
To `Nc1nc(N)c2nc(CNc3ccc4c(Cl)cc(Cl)cc4c3)cnc2n1` [6-{[(5,7-dichloronaphthalen-2-yl)amino]methyl}pteridine-2,4-diamine] belongs 7.58 µM; to `COc1ccc(C#CCCCC(=O)O)cc1Cc1cnc2nc(N)nc(N)c2c1C` [6-[3-({2,4-diamino-5-methylpyrido[2,3-d]pyrimidin-6-yl}methyl)-4-methoxyphenyl]hex-5-ynoic acid], 1.9 µM.
Compound `COc1ccc(OCCCCCC(=O)O)cc1Cc1cnc2nc(N)nc(N)c2c1C` [2,4-diamino-5-deazapteridine, 6] showed an IC50 of 0.51 µM.
To `CCOC(=O)CCCCCOc1ccc(OC)c(Cc2cnc3nc(N)nc(N)c3c2C)c1` [ethyl 6-[3-({2,4-diamino-5-methylpyrido[2,3-d]pyrimidin-6-yl}methyl)-4-methoxyphenoxy]hexanoate] belongs 1.85 µM; to `CCOC(=O)CCCOc1ccc(OC)c(Cc2cnc3nc(N)nc(N)c3c2C)c1` [2,4-diamino-5-deazapteridine, 7], 0.88 µM; to `CN(Cc1cnc2nc(N)nc(N)c2n1)c1ccc2c(Cl)cc(Cl)cc2c1` [6-{[(5,7-dichloronaphthalen-2-yl)(methyl)amino]methyl}pteridine-2,4-diamine], 17.6 µM.
As for `Nc1nc(N)c2c(ccc3c4ccccc4ccc32)n1` [4,6-diazatetracyclo[8.8.0.0^{2,7}.0^{11,16}]octadeca-1(10),2,4,6,8,11(16),12,14,17-nonaene-3,5-diamine], the IC50 is more than 1000 µM.
In the case of `COc1ccc(C#CCCCCC(=O)O)cc1Cc1cnc(N)nc1N` it was 69.3 µM; in that of `COc1ccc(OCCCCC(=O)O)cc1Cc1cnc2nc(N)nc(N)c2c1C` [2,4-diamino-5-deazapteridine, 5], 1.67 µM; in that of `Cc1nc2nc(N)nc(N)c2nc1CN(C)c1ccc2c(Cl)cc(Cl)cc2c1` [6-{[(5,7-dichloronaphthalen-2-yl)(methyl)amino]methyl}-7-methylpteridine-2,4-diamine], more than 1000 µM.
